In a melting point compilation (Tetko et al.; mined from patent text by program, amines drawn as free bases though some values may be those of a salt):

Structure (SMILES) | melting point [°C]
O=C(O)COc1ccc2cc(-c3ccc(-c4ccccc4)n3Cc3ccccc3)ccc2c1 | 171 to 172
COCCc1nc2c(N)nc3cc(-c4ccsc4)ccc3c2n1CC(C)(C)O | 233 to 234
CCOC(=O)CCNC(=O)c1[nH]c(C)c(-c2nc3ccc(C(=O)c4ccccc4)cc3[nH]2)c1C | 135 to 137
CCOc1ccc(Br)c(F)c1Cl | 65.4 to 66.1
CC(=O)Oc1cccc(C(=O)N[C@@H](Cc2ccccc2)[C@H](OC(C)=O)C(=O)O)c1C | 152 to 154
COc1cc2nc(N)nc(-c3cccc(O)c3)c2cc1OC | 256 to 258
Fc1cc(F)c(F)c(N=C2NCCN2)c1F | 147 to 148
CCOC(=O)C1=C(CO)NC=C(C(=O)OC)C1c1ccccc1Cl (centres undefined) | 187 to 188
CCOC(=O)C(=O)CC(=O)c1cn(Cc2ccccc2F)c2ccccc2c1=O | 152 to 153
CCCCc1c(Cc2ccc(-c3ccccc3)c(-c3nnn[nH]3)c2)c(COC)nn1CC(F)(F)F | 48
CCOC(=O)C(C(=O)OCC)C(=O)c1cc(OC)c(OC)c([N+](=O)[O-])c1 | 70
CC(C)(C)OC(=O)CNC(=O)C(=O)c1cn(Cc2ccccc2)c2ccc(-c3ccc(OC(F)(F)F)cc3)cc12 | 167 to 168
OCCOc1ccc2ccn(C3CCN(CCc4ccc(F)cc4)CC3)c2c1 | 118 to 119
COc1ccccc1-c1ccc2cnc(NC(=O)Nc3ccc(N4CCN(C)CC4)cc3)nn12 | 229 to 231
CCCCc1nc2ccn(Cc3ccccc3C(=O)OCC)c(=O)c2n1Cc1ccc(-c2ccccc2-c2nnn[nH]2)cc1 | 203 to 204
Nc1nc2c(c(Nc3ccc(Br)cc3)n1)-c1ccccc1C2 | 214 to 215
CC(C)c1cc(C(C)C)c(OCC(=O)O)c(C(C)C)c1 | 105 to 108
CC(C)(C)[Si](C)(C)OCCn1ccc(N)n1 | 54 to 55
CCCCc1nc2c(N)nc3cccnc3c2n1CCCCN1CC(C(N)=O)=CC=C1N1CCOCC1 | 95 to 100
CC(C)(C)[Si](C)(C)CCCSCCNC(=O)n1cc(F)c(=O)[nH]c1=O | 123 to 124
COC(=O)c1cc(OCc2ccccc2)c(OCc2ccccc2)c(CSCC(=O)O)n1 | 135
CSc1ccc2ncn(/C=C/C(=O)O)c(=O)c2c1 | 271 to 272
CCOC(=O)CC(=O)c1c(C(=O)OC)n(C)c2cc(Cl)ccc12 | 250 to 252
O=C(O)COc1ccccc1C(=O)NCc1ccc(Br)cc1F | 144 to 145
Cc1ccc(-c2nccc3c(Cl)cccc23)cc1 | 88.6 to 89.1

Structure (SMILES) | melting point [°C]
COc1cc(COc2nn(-c3ccccc3)cc2/C=C/C2=NCCO2)ccc1OCc1nc(-c2ccco2)oc1C | 162 to 163
O=C(NCC12CC3CC(CC(C3)C1)C2)c1c(Cl)ccc2nc(N3CCC[C@@H](C(=O)O)C3)ccc12 | 257 to 262
CCCCCCCCCCCCCCCCSCC(CNS(=O)(=O)CCCCl)COC (centres undefined) | 41.5 to 43
OC(c1ccncc1)(c1ccc(F)c(F)c1)c1ccc(F)c(F)c1 | 147 to 149
Oc1ccc(-c2nnc(-c3cccc(-c4nnc(-c5ccc(O)cc5)o4)c3)o2)cc1 | > 400
CCCCc1n[nH]c(C(=O)O)c1Cc1ccc(-c2ccccc2-c2nc(=O)o[nH]2)cc1 | 213 to 214
CC(C)CNc1cccnc1N1CCN(C(=O)c2ccc(C(=O)NC(C)C)cn2)CC1 | 132 to 134
CNc1c(NCCCCc2ncc(Br)cc2C)c(=O)c1=O | 190 to 191
COCCN1CC(C(=O)OC)N(S(=O)(=O)c2ccc(OC)cc2)Cc2ccccc21 (centres undefined) | 86 to 90
COC(=O)CNC(=O)c1[nH]c(C)c(-c2nc3ccc(C(=O)c4ccccc4)cc3[nH]2)c1C | 149 to 151
COc1ccc(C(=O)C=C2c3ccccc3C(=O)c3ccccc32)cc1OC | 160
O=C=Nc1ccc(F)cc1 | 93 to 94
C[Si](C)(c1ccccc1)C1CC(=O)c2c(nc3ccccc3c2N)C1 (centres undefined) | 178 to 180
COc1ccc(CNc2n[nH]c3ncnc(Nc4cccc(Cl)c4)c23)c(OC)c1OC | 168 to 169
CNC(=S)NCCCCC(NC(=O)C(Cc1cccc2ccccc12)Cc1cccc2ccccc12)C(=O)NC(CC(C)C)C(O)C(=O)OC(C)C (centres undefined) | 93 to 95
CN(C)c1ccc(C2(c3ccc(N(C)C)cc3N(C)C)OC(=O)c3ccccc32)cc1 (centres undefined) | 190 to 194
Cc1cc2cc(CN3CCCCC3)cnc2cc1NC(=O)c1ccc(-c2ccc(F)cc2)cc1 | 185 to 188
N#CCNC(COCc1cc(C(F)(F)F)cc(C(F)(F)F)c1)C(c1ccccc1)c1ccccc1 (centres undefined) | 78 to 80
Cc1c(F)cc(C(=O)NC2CC2)cc1I | 112 to 114
CC1(C)CCC(C)(C)c2cc3[nH]c(S)nc3cc21 | > 300
COC1=Nc2ccc(Cl)cc2N(c2ccccc2)C(=O)C1 | 136 to 138
O=[N+]([O-])c1cnc2ccc(S)cc2c1-c1ccccc1 | 160 to 163
CSC1CCC(=O)C(C(=O)c2ccc(S(C)(=O)=O)cc2Cl)C1=O (centres undefined) | 146 to 149
CCOC(=O)c1cc2cc(OC(F)(F)F)cc(N(C)S(=O)(=O)c3cccs3)c2[nH]1 | 149 to 150
C[C@@H](Nc1ncnc2[nH]c(-c3ccc(CN4CCN(C(=O)OC(C)(C)C)CC4)cc3)cc12)c1ccccc1 | 244 to 246

Structure (SMILES) | melting point [°C]
CC(C)NC1=NS(=O)(=O)c2cc(Cl)cc([N+](=O)[O-])c2N1 | 266 to 267
CNCC(=O)N(C)Cc1ccc(CCn2cnc3cc(-c4ccc(Cl)cc4)sc3c2=O)cc1 | 166 to 169
COC(=O)c1ccc2oc(=S)[nH]c2c1 | 218 to 221
CC(=O)Oc1ccc2c3c1OC1C(OS(=O)(=O)C(F)(F)F)CCC4(O)C(C2)N(C)CCC314 (centres undefined) | 125 to 126
Cc1c(O)cc(OC(=O)Cc2ccc(CC(=O)Oc3cc(O)c(C)c(O)c3)cc2)cc1O | 276 to 278
Nc1c(Br)cc2c3c(cccc13)C(=O)N(O)C2=O | 318 to 324
CCCc1nncn1-c1ccc(O)cc1 | 176
O=c1cc(-c2ccc(F)cc2)c2c([nH]1)C1CCC(C2)C1 (centres undefined) | > 300
CN(C)CCOc1ccc(-c2n[nH]c3ncccc23)cc1 | 132 to 134
CCc1cccc(NC(=O)C=C(C)C)c1 | 90
O=CNCCNC1=NS(=O)(=O)c2cc(Cl)ccc2N1 | 245 to 247
O=S1(=O)N=CN(C2CC2)c2cc(F)cc(Br)c21 | 270 to 273
CCCc1c(C(C)C)nc(C(C)C)c(C(C)O)c1-c1ccc(F)cc1 (centres undefined) | 103 to 104
CCOC(=O)c1c(C)nc2[nH]ncc2c1OCC | 180 to 182
Cc1nc(Br)c2n1-c1ccc(Cl)cc1C(c1ccccc1F)=NC2 | 201 to 205
O=c1c2cc(Cl)cc(Br)c2ncn1CCCN1CC=C(c2c[nH]c3ccccc23)CC1 | 192
CC(CC(C#N)(c1ccccc1)c1ccccn1)N1CCN(C)CC1 (centres undefined) | 89 to 90
O=C(NNC(=O)c1ccccc1Cl)c1ccccc1Cl | 217 to 219
CCCc1cc2c(c(Br)c1O)CCO2 | 42 to 43
CN(C)CCc1c[nH]c2ccc(CCS(=O)(=O)Nc3ccccc3)cc12 | 144 to 146
N#Cc1c(N2CCN(C(=O)c3ccco3)CC2)c2cc(Cl)cnc2n(Cc2cccc(F)c2)c1=O | 134
Nc1nc(=O)n(S(=O)(=O)c2ccc(Cl)cc2)cc1F | 174 to 178
CN1C(=O)C(C2OC(=O)c3ccccc32)N(C)C(=O)C1Cc1ccccc1 (centres undefined) | 225
COc1ccc(C(=O)c2cccc(C(=O)O)c2)c(O)c1 | 229 to 236
O=C(Nc1ccc(NCCCO)nc1)c1cc2cc(C(F)(F)F)cnc2n1Cc1cccc(F)c1 | 207 to 210

Structure (SMILES) | melting point [°C]
CCOC(=O)Cc1cc2c(N)cccc2cn1 | 90
CC(=O)c1cc(OCC(O)COc2ccc(C#N)cc2)ccc1O (centres undefined) | 118 to 120
CC(C)(C)OC(=O)NC1CCN(c2c(F)cc3c(=O)c(C(=O)O)cn(C4CC4)c3c2F)C1 (centres undefined) | 239 to 240
CCOC(=O)N1CCC(C(=O)O)=Cc2ccccc21 | 176
N#Cc1c2c(cc3ccc(O)cc13)-c1ccc(O)cc1CO2 | > 280
CCOc1noc(-c2ncn(C(c3ccccc3)(c3ccccc3)c3ccccc3)n2)c1C | 181 to 183
COC(=O)C1CCCN1S(N)(=O)=O (centres undefined) | 166 to 168
CCOc1ccc([N+](=O)[O-])cc1-c1nc2cccnc2c(=O)[nH]1 | 251 to 254
Cc1nc(N2CCN(CCC3CC3)C2=O)sc1C(=O)NCc1ccccc1 | 137 to 138
COC(=O)[C@@H]1CSCN1C(=O)/C=C\Sc1ccccc1 | 126 to 128
COc1cc(C)nc(NC(=O)NS(=O)(=O)c2cccc3c2OCCO3)n1 | 203 to 205
O=C(O)C1CC(c2ccco2)=NN1C(=O)CCS (centres undefined) | 121 to 123
OCCCC#Cc1ccc2ccccc2c1 | 37 to 38
Cc1cccc(-c2nc(O)cc(-c3ccccc3Cl)n2)n1 | 196
COC(=O)c1c(C(F)F)nc(C(F)(F)F)c(C(=O)SC)c1NC1CC1 | 108 to 109
COc1cc(F)c(-c2nn(C)c(C(F)(F)F)c2Cl)cc1[N+](=O)[O-] | 116
CCOC(=O)c1c(-c2cccc(F)c2)c(Cl)n2c1CNCC2 | 96 to 98
NC(=O)[C@H]1CN2C(=O)N(c3cc(Cl)cc(Cl)c3)C(=O)[C@]2(Cc2ccc(OC(F)(F)F)cc2)C1 | 123
Clc1ccc(CO[C@H]2CO[C@@H](c3ccccc3)OC2)cc1 | 116 to 117
CCCCc1oc2ccccc2c1C(=O)NCc1ccc2c(-c3ccc(Cl)cc3)c(OC(Cc3ccccc3)C(=O)O)ccc2c1 (centres undefined) | 169 to 172
CC(=O)OC1CSC(Sc2ccc3ccccc3c2)C(OC(C)=O)C1OC(C)=O (centres undefined) | 151
FC1CNC(c2ccc3c(c2)OCO3)c2[nH]c3ccccc3c21 (centres undefined) | 172
O=S(=O)(CCl)c1ccc(O)c(Br)c1 | 158 to 160
OC[C@H]1O[C@@H]1c1cc(F)cc(F)c1 | 48 to 50
